± gives the standard deviation of the averaged measurements.
Legend:
Conditions in all cases: 72 h
HL-60 [1] = experiment: cell viability (% survival relative to DMSO control); higher = less cytotoxic
How it was run: (§1)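 A rescreen of the full library used HL-60 cells in RPMI 1640 with 10% FBS on 384-well plates, run in duplicate at five tenfold concentrations (1–10,000 nM). Each screen included DMSO or 100 nM of one of three metabolic inhibitors and ran 72 h at 37 °C, 5% CO2. CellTiter-Glo viability was scaled between DMSO and 10 μM proteasome-inhibitor wells. Any area under the curve comes from four-parameter log-logistic fits with drc and PharmacoGx.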

[2] = tested on: myeloid leukemia patient primary cells Pat.10; experiment: cell viability (% survival relative to DMSO control); higher = less cytotoxic
How it was run: (§2)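 Seventy compounds were pre-printed on 384-well plates at five tenfold concentrations between 1 and 10,000 nM, in duplicate. Thawed mononuclear cells purified by Ficoll from AML or CML patients were added at 10,000 cells/well in RPMI 1640 with 10% FBS for 72 h. Viability by CellTiter-Glo was normalised to DMSO and 10 μM proteasome-inhibitor wells. Where stated, area under the curve was taken from log-logistic fits made with the drc and PharmacoGx R packages, each fit having four parameters.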

[3] = tested on: myeloid leukemia patient primary cells Pat.11; experiment: as above
How it was run: as §2

[4] = tested on: myeloid leukemia patient primary cells Pat.12; experiment: as above
How it was run: as §2

[5] = tested on: myeloid leukemia patient primary cells Pat.13; experiment: as above
How it was run: as §2

[6] = tested on: myeloid leukemia patient primary cells Pat.14; experiment: as above
How it was run: as §2

[7] = tested on: myeloid leukemia patient primary cells Pat.15; experiment: as above
How it was run: as §2

[8] = tested on: myeloid leukemia patient primary cells Pat.1; experiment: as above
How it was run: as §2

[9] = tested on: myeloid leukemia patient primary cells Pat.2; experiment: as above
How it was run: as §2

[10] = tested on: myeloid leukemia patient primary cells Pat.3; experiment: as above
How it was run: as §2

[11] = tested on: myeloid leukemia patient primary cells Pat.4; experiment: as above
How it was run: as §2

[12] = tested on: myeloid leukemia patient primary cells Pat.5; experiment: as above
How it was run: as §2

[13] = tested on: myeloid leukemia patient primary cells Pat.6; experiment: as above
How it was run: as §2

[14] = tested on: myeloid leukemia patient primary cells Pat.7; experiment: as above
How it was run: as §2

[15] = tested on: myeloid leukemia patient primary cells Pat.8; experiment: as above
How it was run: as §2

[16] = tested on: myeloid leukemia patient primary cells Pat.9; experiment: as above
How it was run: as §2

HL-60 [17] = experiment: area under dose-response curve (viability, 1 nM-10 uM) (fraction (0-1)); higher = more sensitive
How it was run: as §1

O=C(O)CC[N+](=O)[O-] [3-nitropropionic acid]
cell viability [%], HL-60 [1]
Conditions	0.001 µM	0.01 µM	0.1 µM	1 µM	10 µM
co-treatment: AZD3965 100 nM	102 ± 2.5	95.1 ± 6.5	101 ± 3.9	101.5 ± 0.46	97.6 ± 4.4
co-treatment: DMSO vehicle	99.6 ± 5.9	98.8 ± 1.1	107 ± 3.9	111 ± 15	101 ± 5.7
co-treatment: GSK2194069 100 nM	98.1 ± 5.8	76.9 ± 5	116 ± 17	115 ± 27	96.7 ± 5
co-treatment: pictilisib 100 nM	84.3 ± 4.9	82.1 ± 29	103 ± 4.1	128 ± 28	106 ± 16

Conditions	area under dose-response curve, co-treatment: AZD3965 100 nM	area under dose-response curve, co-treatment: DMSO vehicle	area under dose-response curve, co-treatment: GSK2194069 100 nM	area under dose-response curve, co-treatment: pictilisib 100 nM	cell viability, 1 nM [%]	cell viability, 10 nM [%]	cell viability, 100 nM [%]	cell viability, 1000 nM [%]	cell viability, 10000 nM [%]
HL-60 [17]	< 0.0301	< 0.0301	< 0.0301	< 0.0301	–	–	–	–	–
[2]	–	–	–	–	90.9	83.7	74.7	76.2	36.6
[3]	–	–	–	–	97.4	90.2	97.5	99.5	97.4
[4]	–	–	–	–	97.9	84	> 100	91.5	48.2
[5]	–	–	–	–	87.3	92.4	95.5	88.3	70.8
[6]	–	–	–	–	98.6	91.2	> 100	84.7	30.7
[7]	–	–	–	–	92.7	79.1	98.7	94.9	2.04
[8]	–	–	–	–	84.1	94.1	> 100	88.4	68.5
[9]	–	–	–	–	91.3	98.1	> 100	92.7	83.7
[10]	–	–	–	–	91.5	93.8	99.8	92.1	3.01
[11]	–	–	–	–	83.6	84.5	99.3	95.6	5.84
[12]	–	–	–	–	85.9	50.1	81.8	67.1	0.265
[13]	–	–	–	–	> 100	93	> 100	96.8	90
[14]	–	–	–	–	98.1	99.9	82.6	90.8	44.9
[15]	–	–	–	–	81.1	96.9	95.6	96.3	82.7
[16]	–	–	–	–	80.9	66.3	81.6	71.5	2.42

CN(CCOc1ccc(Cc2sc(O)nc2O)cc1)c1ccccn1 [Rosiglitazone]
cell viability [%], HL-60 [1]
Conditions	0.001 µM	0.01 µM	0.1 µM	1 µM	10 µM
co-treatment: AZD3965 100 nM	104.4 ± 0.49	105 ± 6.8	100 ± 2.6	105 ± 4.5	102 ± 9.3
co-treatment: DMSO vehicle	102.4 ± 1	102 ± 1.9	102 ± 1.4	102.5 ± 1	99.9 ± 4.4
co-treatment: GSK2194069 100 nM	97.7 ± 2.8	105 ± 4	98.5 ± 1.7	105 ± 8.2	92.5 ± 4.1
co-treatment: pictilisib 100 nM	98.9 ± 12	102 ± 7.2	96.3 ± 18	98.3 ± 4.8	89.5 ± 6.1

Conditions	area under dose-response curve, co-treatment: AZD3965 100 nM	area under dose-response curve, co-treatment: DMSO vehicle	area under dose-response curve, co-treatment: GSK2194069 100 nM	area under dose-response curve, co-treatment: pictilisib 100 nM	cell viability, 1 nM [%]	cell viability, 10 nM [%]	cell viability, 100 nM [%]	cell viability, 1000 nM [%]	cell viability, 10000 nM [%]
HL-60 [17]	< 0.0301	< 0.0301	< 0.0301	< 0.0301	–	–	–	–	–
[2]	–	–	–	–	73.8	40	87.7	67.1	49.2
[3]	–	–	–	–	98.6	92.1	95.7	97.2	88.1
[4]	–	–	–	–	> 100	97.4	95.7	96.5	88.9
[5]	–	–	–	–	80.8	69.2	99.9	91.9	78.3
[6]	–	–	–	–	53.7	59.7	> 100	91.1	50
[7]	–	–	–	–	93.1	95	91.5	77.7	70
[8]	–	–	–	–	80.1	72.6	92.5	95.9	84.4
[9]	–	–	–	–	87.1	78.9	97.8	98.3	83.4
[10]	–	–	–	–	91.7	63.6	99.4	79.2	36
[11]	–	–	–	–	83.3	93	99.6	94.1	95.3
[12]	–	–	–	–	9.01	3.3	91.7	92.8	6.86
[13]	–	–	–	–	89.5	85.4	96.7	99	77.9
[14]	–	–	–	–	62.7	60	> 100	88.5	66
[15]	–	–	–	–	92.6	87	80.3	91.8	69.7
[16]	–	–	–	–	55	24.9	94.9	61.9	29.7

— the supplement of paper PMC8671470
